Assay results: the NIST ThermoML archive (doi:10.1021/je700645p)

Tests used:
[1] = 81.5 kPa, Liquid
[2] = refractive index (Na D-line) (dimensionless); conditions: 298.15 K; 81.5 kPa; Liquid; Standard Abbe refractometry
[3] = xn = mol fraction of the nth substance listed; conditions: 81.5 kPa, Liquid

CC#N [acetonitrile]
[1]
Conditions	mass density [kg/m3]
293.15 K	781.97
303.15 K	771.15
313.15 K	760.2
323.15 K	749.12
333.15 K	737.87

Conditions	refractive index
[2]	1.3417

C[S+](C)[O-] [dimethyl sulfoxide] + CC#N
mass density [kg/m3], [3]
Conditions	293.15 K	303.15 K	313.15 K	323.15 K	333.15 K
x2 = 0	1100.41	1090.37	1080.34	1070.3	1060.27
x2 = 0.0563	1087.32	1077.27	1067.22	1057.17	1047.11
x2 = 0.1195	1072.32	1062.27	1052.21	1042.11	1032.03
x2 = 0.1751	1058.54	1048.48	1038.38	1028.38	1018.15
x2 = 0.2996	1025.83	1015.69	1005.54	995.35	985.14
x2 = 0.3723	1005.56	995.38	985.18	974.94	964.64
x2 = 0.4529	981.91	971.68	961.4	951.09	940.71
x2 = 0.5273	959	948.69	938.36	927.96	917.5
x2 = 0.579	942.39	932.08	921.68	911.22	900.68
x2 = 0.6896	904.94	894.48	883.96	873.36	862.66
x2 = 0.7579	880.41	869.88	859.27	848.57	837.77
x2 = 0.8337	851.62	841	830.29	819.48	808.55
x2 = 0.933	811.3	800.6	789.76	778.79	767.68

O [water] + C[S+](C)[O-]
[3], x1 = 1
Conditions	mass density [kg/m3]
323.15 K	988.03
333.15 K	983.19

C[S+](C)[O-] [dimethyl sulfoxide] + O
mass density [kg/m3], [3]
Conditions	293.15 K	303.15 K	313.15 K	323.15 K	333.15 K
x2 = 0	1100.41	1090.37	1080.34	1070.3	1060.27
x2 = 0.0568	1100.94	1090.97	1081.01	1071.03	1061.04
x2 = 0.1605	1101.91	1092.1	1082.26	1072.41	1062.5
x2 = 0.2252	1102.54	1092.83	1083.1	1073.32	1063.49
x2 = 0.3187	1103.26	1093.73	1084.18	1074.52	1064.79
x2 = 0.3953	1103.54	1094.31	1084.89	1075.37	1065.74
x2 = 0.4582	1103.48	1094.25	1084.95	1075.54	1066
x2 = 0.5473	1102.05	1093.11	1084.03	1074.8	1065.41
x2 = 0.6473	1097.2	1088.67	1079.97	1071.08	1062
x2 = 0.7213	1089.55	1081.52	1073.28	1064.82	1056.12
x2 = 0.7997	1075.48	1068.31	1060.87	1053.13	1045.11
x2 = 0.8828	1051.12	1045.47	1039.4	1032.81	1024.92
x2 = 0.9632	1016.98	1013.46	1009.19	1003.92	998.73
